System: APC−/−; KRASG12D/WT; P53−/−; MSH2−/− (AKP-MSH2) organoids
Assay: Viability of AKP-MSH2 murine colorectal cancer organoids
Type: cell-based
From the text: To generate 4. APC^−/−; KRAS^G12D/WT; P53^−/−; (AKP) and 5. APC^−/−; KRAS^G12D/WT; P53^−/−; MSH2^−/− (AKP-MSH2) colon cancer organoids, colonic crypts were isolated and colon organoids were generated from the following mouse genotypes on a C57Bl/6 background: 4. LSL-KRAS^G12D/WT; P53^fl/fl mice and 5. LSL-KRAS^G12D; P53^fl/fl; MSH2^fl/fl mice. Subsequently, the pSECC-APC plasmid (carrying Cre, Cas9, and sgAPC) was transfected into each of the above two genotypes of colon organoids. Following pSECC-APC transfection, Wnt/Rspo withdrawal was performed and surviving (APC^−/−) single organoids were cloned and PCR genotyped for Cre mediated deletion of p53 and/or MSH2, and for Cre mediated activation of oncogenic KRAS^G12D.
Twenty four hours after seeding the organoids, a media change was performed and dose responses of oxaliplatin, doxorubicin and doxaliplatin were added. […] Organoids were cultured in Advanced DMEM/F12 supplemented with 2 mM GlutaMAX, 1% Penicillin-Streptomycin, 2% B27, and Y-27632 (10 μM).

IC50 (72-h exposure, read-out: IC50 against AKP-MSH2 organoids): 78 nM
Potency relative to oxaliplatin (by IC50) (AKP-MSH2 organoids): 28 fold
Compound: COc1cccc2c1C(=O)c1c(O)c3c(c(O)c1C2=O)CC(O)(C(=O)CO)CC3OC1CC(N)C(N)C(C)O1.O=C1[O][Pt][O]C1=O (centres unmarked) [DoxPt, Doxaliplatin]

— US11203608B2, “Platinum-containing compounds, and related compositions and uses thereof” (Massachusetts Institute of Technology, priority 2019, dated 2021)
